Laboratory results from patent US8501746B2, “Organic compounds” (Xenon Pharmaceuticals Inc., priority 2006, dated 2013).

Molecule `Cc1nc(-n2ccc(-c3ccccc3)cc2=O)sc1C(=O)NCc1ccccc1` [Example 1, N-benzyl-4-methyl-2-(2-oxo-4-phenylpyridin-1(2H)-yl)thiazole-5-carboxamide] has a melting point of 235 to 237 °C. `Cc1nc(-n2ccc(OCCC3CC3)cc2=O)sc1C(=O)NCc1ccccc1` [Example 1.3, N-Benzyl-2-(4-(2-cyclopropylethoxy)-2-oxopyridin-1(2H)-yl)-4-methylthiazole-5-carboxamide] showed a melting point of 172 to 174 °C. With `Cc1nc(-n2ccc(OCCC3CC3)cc2=O)sc1C(=O)NCc1ccc(F)cc1` [Example 1.4, 2-(4-(2-Cyclopropylethoxy)-2-oxopyridin-1(2H)-yl)-N-(4-fluorobenzyl)-4-methylthiazole-5-carboxamide] the melting point was 172 to 174 °C. In the case of `Cc1nc(-n2ccc(OCCC3CC3)cc2=O)sc1C(=O)NCc1cccnc1` [Example 1.5, 2-(4-(2-Cyclopropylethoxy)-2-oxopyridin-1(2H)-yl)-4-methyl-N-(pyridin-3-ylmethyl)thiazole-5-carboxamide], the melting point is reported as 170 to 172 °C. Molecule `Cc1nc(-n2ccc(O)cc2=O)sc1C(=O)NCc1ccc(F)cc1` [Example 1.6, N-(4-Fluorobenzyl)-2-(4-hydroxy-2-oxopyridin-1(2H)-yl)-4-methylthiazole-5-carboxamide] has a melting point of 280 to 282 °C. Work on `Cc1nc(-n2ccc(OCc3ccccc3)cc2=O)[nH]c1C(=O)NCc1cccnc1` [Example 1.8, 2-(4-(Benzyloxy)-2-oxopyridin-1(2H)-yl)-4-methyl-N-(pyridin-3-ylmethyl)-1H-imidazole-5-carboxamide] yielded a melting point of 203 to 204 °C. Work on `Cc1nc(-n2ccc(OCc3ccccc3)cc2=O)n(C)c1C(=O)NCc1ccccc1` [Example 1.9, N-Benzyl-2-(4-(benzyloxy)-2-oxopyridin-1(2H)-yl)-1,4-dimethyl-1H-imidazole-5-carboxamide] yielded a melting point of 232 to 233 °C. Molecule `Cc1c(C(=O)NCc2ccccc2)nc(-n2ccc(OCc3ccccc3)cc2=O)n1C` [Example 1.10, N-Benzyl-2-(4-(benzyloxy)-2-oxopyridin-1(2H)-yl)-1,5-dimethyl-1H-imidazole-4-carboxamide] has a melting point of 190 to 191 °C. Work on `COc1ccn(-c2nc(C)c(C(=O)NCc3cccnc3)s2)c(=O)c1` [Example 1.11, 2-(4-Methoxy-2-oxopyridin-1(2H)-yl)-4-methyl-N-(pyridin-3-ylmethyl)thiazole-5-carboxamide] yielded a melting point of 200 to 202 °C. `Cc1nc(-n2ccc(OCc3ccc(C(F)(F)F)o3)cc2=O)sc1C(=O)NCc1cccnc1` [Example 1.12, 4-Methyl-2-(2-oxo-4-((5-(trifluoromethyl)furan-2-yl)methoxy)pyridin-1(2H)-yl)-N-(pyridin-3-ylmethyl)thiazole-5-carboxamide] showed a melting point of 240 to 242 °C. `Cc1nc(-n2ccc(OCc3ccc(F)cc3)cc2=O)sc1C(=O)NCc1cccnc1` [Example 1.13, 2-(4-(4-Fluorobenzyloxy)-2-oxopyridin-1(2H)-yl)-4-methyl-N-(pyridin-3-ylmethyl)thiazole-5-carboxamide] showed a melting point of 231 to 233 °C. Molecule `Cc1nc(-n2ccc(OCc3ccc(F)cc3)cc2=O)sc1C(=O)NCc1ccc(F)cc1` [Example 1.14, N-(4-Fluorobenzyl)-2-(4-(4-fluorobenzyloxy)-2-oxopyridin-1(2H)-yl)-4-methylthiazole-5-carboxamide] has a melting point of 249 to 251 °C. For `Cc1nc(-n2ccc(O)cc2=O)sc1C(=O)NCc1cccc(F)c1` [Example 1.15, N-(3-Fluorobenzyl)-2-(4-hydroxy-2-oxopyridin-1(2H)-yl)-4-methylthiazole-5-carboxamide], the melting point was 250 to 252 °C. For `Cc1nc(-n2ccc(O)cc2=O)sc1C(=O)NCC1CC1` [Example 1.16, N-(Cyclopropylmethyl)-2-(4-hydroxy-2-oxopyridin-1(2H)-yl)-4-methylthiazole-5-carboxamide], the melting point was 240 to 242 °C. In the case of `Cc1nc(-n2ccc(O)cc2=O)sc1C(=O)NCCC1CC1` [Example 1.17, N-(2-Cyclopropylethyl)-2-(4-hydroxy-2-oxopyridin-1(2H)-yl)-4-methylthiazole-5-carboxamide], the melting point is reported as 234 to 236 °C. For `Cc1nc(-n2ccc(O)cc2=O)sc1C(=O)NCCc1ccc(F)cc1` [Example 1.18, N-(4-Fluorophenethyl)-2-(4-hydroxy-2-oxopyridin-1(2H)-yl)-4-methylthiazole-5-carboxamide], the melting point was 225 to 227 °C. `Cc1nc(-n2ccc(O)cc2=O)sc1C(=O)NCc1ccc(F)c(F)c1` [Example 1.19, N-(3,4-Difluorobenzyl)-2-(4-hydroxy-2-oxopyridin-1(2H)-yl)-4-methylthiazole-5-carboxamide] showed a melting point of 294 to 296 °C. In the case of `Cc1nc(-n2ccc(O)cc2=O)sc1C(=O)NCc1ccncc1` [Example 1.20, 2-(4-Hydroxy-2-oxopyridin-1(2H)-yl)-4-methyl-N-(pyridin-4-ylmethyl)thiazole-5-carboxamide], the melting point is reported as 275 to 278 °C. `Cc1cc(-n2ccc(OCc3ccccc3)cc2=O)sc1C(=O)NCc1cccnc1` [Example 1.23, 5-(4-(Benzyloxy)-2-oxopyridin-1(2H)-yl)-3-methyl-N-(pyridin-3-ylmethyl)thiophene-2-carboxamide] showed a melting point of 165 to 167 °C. Molecule `Cc1nc(-n2ccc(OCc3ccc(F)cc3)cc2=O)sc1C(=O)NCc1ccccc1` [Example 1.24, N-Benzyl-2-(4-(4-fluorobenzyloxy)-2-oxopyridin-1(2H)-yl)-4-methylthiazole-5-carboxamide] has a melting point of 243 to 245 °C. With `Cc1nc(-n2ccc(OCc3ccccc3)cc2=O)sc1C(=O)NCc1ccccc1` [Example 2, N-Benzyl-2-(4-(benzyloxy)-2-oxopyridin-1(2H)-yl)-4-methylthiazole-5-carboxamide] the melting point was 219 to 220 °C. `Cc1nc(-n2ccc(N)cc2=O)sc1C(=O)NCc1ccccc1` [Example 3, 2-(4-Amino-2-oxopyridin-1(2H)-yl)-N-benzyl-4-methylthiazole-5-carboxamide] showed a melting point of 171 to 172 °C. `Cc1nc(-n2ccnc(C)c2=O)sc1C(=O)NCc1ccccc1` [Example 3.1, N-Benzyl-4-methyl-2-(3-methyl-2-oxopyrazin-1(2H)-yl)thiazole-5-carboxamide] gave a melting point of 186 to 187 °C. In the case of `Cc1nc(-n2cc(OCc3ccccc3)ccc2=O)sc1C(=O)NCc1ccccc1` [Example 3.2, N-Benzyl-2-(5-(benzyloxy)-2-oxopyridin-1(2H)-yl)-4-methylthiazole-5-carboxamide], the melting point is reported as 166 to 167 °C. In the case of `Cc1nc(-n2cc(Cl)ccc2=O)sc1C(=O)NCc1ccccc1` [Example 3.3, N-Benzyl-2-(5-chloro-2-oxopyridin-1(2H)-yl)-4-methylthiazole-5-carboxamide], the melting point is reported as 173 to 174 °C. Molecule `Cc1nc(-n2cc(C(F)(F)F)ccc2=O)sc1C(=O)NCc1ccccc1` [Example 3.4, N-Benzyl-4-methyl-2-(2-oxo-5-(trifluoromethyl)pyridin-1(2H)-yl)thiazole-5-carboxamide] has a melting point of 148 to 149 °C. For `Cc1nc(-n2ccc(C(F)(F)F)cc2=O)sc1C(=O)NCc1ccccc1` [Example 3.6, N-Benzyl-4-methyl-2-(2-oxo-4-(trifluoromethyl)pyridin-1(2H)-yl)thiazole-5-carboxamide], the melting point was 197 to 198 °C. For `Cc1nc(-n2cccc(OCc3ccccc3)c2=O)sc1C(=O)NCc1ccccc1` [Example 3.7, N-Benzyl-2-(3-(benzyloxy)-2-oxopyridin-1(2H)-yl)-4-methylthiazole-5-carboxamide], the melting point was 198 to 201 °C. In the case of `Cc1nc(-n2ccc3c(OCc4ccccc4)cccc3c2=O)sc1C(=O)NCc1ccccc1` [Example 3.8, N-Benzyl-2-(5-(benzyloxy)-1-oxoisoquinolin-2(1H)-yl)-4-methylthiazole-5-carboxamide], the melting point is reported as 225 to 226 °C. With `Cc1nc(-n2c(=O)ccc3cc(OCc4ccccc4)ccc32)sc1C(=O)NCc1ccccc1` [Example 3.9, N-Benzyl-2-(6-(benzyloxy)-2-oxoquinolin-1(2H)-yl)-4-methylthiazole-5-carboxamide] the melting point was 213 to 216 °C. Molecule `Cc1nc(-n2ccccc2=O)sc1C(=O)NCc1ccccc1` [Example 3.10, N-Benzyl-4-methyl-2-(2-oxopyridin-1(2H)-yl)thiazole-5-carboxamide] has a melting point of 180 to 182 °C. Work on `Cc1nc(-n2ccc(OCc3ccccc3)cc2=O)sc1C(=O)NCc1ccc(F)cc1` [Example 3.12, 2-(4-(Benzyloxy)-2-oxopyridin-1(2H)-yl)-N-(4-fluorobenzyl)-4-methylthiazole-5-carboxamide] yielded a melting point of 223 to 225 °C. With `Cc1nc(-n2ccc(C(=O)Nc3ccccc3)cc2=O)sc1C(=O)NCc1ccccc1` [Example 3.13, N-Benzyl-4-methyl-2-(2-oxo-4-(phenylcarbamoyl)pyridin-1(2H)-yl)thiazole-5-carboxamide] the melting point was 243 to 245 °C. For `Cc1nc(-n2cccc(C(=O)Nc3ccccc3)c2=O)sc1C(=O)NCc1ccccc1` [Example 3.14, N-Benzyl-4-methyl-2-(2-oxo-3-(phenylcarbamoyl)pyridin-1(2H)-yl)thiazole-5-carboxamide], the melting point was 225 to 227 °C. For `Cc1nc(-n2cc(C(=O)Nc3ccccc3)ccc2=O)sc1C(=O)NCc1ccccc1` [Example 3.15, N-Benzyl-4-methyl-2-(2-oxo-5-(phenylcarbamoyl)pyridin-1(2H)-yl)thiazole-5-carboxamide], the melting point was 223 to 225 °C. Molecule `Cc1nc(-n2ccccc2=O)sc1C(=O)NCc1cccnc1` [Example 3.16, 4-Methyl-2-(2-oxopyridin-1(2H)-yl)-N-(pyridin-3-ylmethyl)thiazole-5-carboxamide] has a melting point of 218 to 220 °C. With `Cc1nc(-n2ccc(OCc3ccccc3)cc2=O)sc1C(=O)NCc1ccc(F)c(F)c1` [Example 3.17, 2-(4-(Benzyloxy)-2-oxopyridin-1(2H)-yl)-N-(3,4-difluorobenzyl)-4-methylthiazole-5-carboxamide] the melting point was 225 to 227 °C. Work on `Cc1nc(-n2ccc(COc3ccccc3)cc2=O)sc1C(=O)NCc1ccccc1` [Example 3.18, N-Benzyl-4-methyl-2-(2-oxo-4-(phenoxymethyl)pyridin-1(2H)-yl)thiazole-5-carboxamide] yielded a melting point of 175 to 177 °C. `Cc1cc(-n2ccc(OCc3ccccc3)cc2=O)sc1C(=O)NCc1ccc(F)cc1` [Example 3.21, 5-(4-(Benzyloxy)-2-oxopyridin-1(2H)-yl)-N-(4-fluorobenzyl)-3-methylthiophene-2-carboxamide] showed a melting point of 175 to 177 °C.
